Source: patent US20250108038A1 (priority 2023, published 2025)
Where “and” joins values, the source holds several entries; their conditions need not be identical. Equal entries are not always repeated. Where two headings read alike, the source gives them in different places.

What was measured:
[1] = tested on: HEK293 uptake transporter overexpressing and control cells; assay: Resazurin-based cytotoxicity assay
Procedure: The cells were plated on 96-well plates. Prior to the experiment the medium was removed, and cells were rinsed with 2×100 μL of the respective buffer for uptake transporter transfected and control cell lines.

in vivo = details: for plasma concentration of Compound A: Compound A single PO 5.102 mg/kg
Procedure: Dose solutions were prepared freshly on each day of studies prior to dosing.
The animals were weighed immediately prior to dosing and the dose volume was calculated individually based the obtained body weight and the nominal dose volume. […] The nominal dose volume was 10 mL/kg in both studies.
Cage side observation was performed before and after dosing as well as at each scheduled sample collection time. The observation included appearance, posture, behavior, morbidity and mortality. Abnormal findings, if any, are required to be recorded in the study record and communicated with study director, veterinarian, and Supernus if necessary.
Approximately 40 μL blood was collected at each scheduled time point from saphenous veins. The actual sample collection time was within 1 min. of the nominal time for collections prior to or at 1 hour, and within 5% of the nominal values for collections post 1 hour.
The blood samples were placed in pre-labeled micro-centrifuge tubes containing K2EDTA as anticoagulant and kept on ice before they were processed to plasma within 30 minutes of collection by centrifugation at 4° C., 3000 g for 5 minutes. The plasma samples were stored at −70±10° C. until LC-MS/MS analysis.
Plasma concentrations below the LLOQ prior to Tmax were set to zero, and those after Tmax were excluded from PK calculation. The nominal dose and the nominal sample collection time were used for the calculation. The values of plasma concentrations and PK parameters are reported to three significant figures. The average values of each treatment group are presented as mean±SD.

[2] = OCT1 assay, 20.00 μM, incubation 30 + 3 min
[3] = OCT1 assay, 30.00 μM, incubation 30 + 3 min
[4] = OCT2 assay, 5.00 μM, incubation 30 + 1 min
[5] = OCT2 assay, 10.00 μM, incubation 30 + 1 min
[6] = OCT2 assay, 20.00 μM, incubation 30 + 1 min
[7] = OCT2 assay, 30.00 μM, incubation 30 + 1 min
[8] = male, CD-1, mouse, in vivo, po, 5.102 mg/kg

OC1(c2ccc(Cl)cc2)c2ccccc2C2=NCCN21 (centres unmarked) [Compound A, 5-(4-chlorophenyl)-2,3-dihydroimidazo[1,2-b]isoindol-5-ol, reference compound]
Relative cell viability, control cells [1, 2]: 98.58 ± 5.65 % of control
Relative cell viability, transfected cells [1, 2]: 105.82 ± 8.04 % of control
Relative cell viability, control cells [1, 3]: 102.27 ± 5.38 % of control
Relative cell viability, transfected cells [1, 3]: 109.22 ± 8.33 % of control
Relative cell viability, control cells [1, 4]: 95.32 ± 3.75 % of control
Relative cell viability, transfected cells [1, 4]: 96.41 ± 1.41 % of control
Relative cell viability, control cells [1, 5]: 93.96 ± 4.78 % of control
Relative cell viability, transfected cells [1, 5]: 97.59 ± 1.08 % of control
Relative cell viability, control cells [1, 6]: 96.81 ± 3.07 % of control
Relative cell viability, transfected cells [1, 6]: 98.80 ± 0.86 % of control
Relative cell viability, control cells [1, 7]: 96.68 ± 2.77 % of control
Relative cell viability, transfected cells [1, 7]: 98.11 ± 0.97 % of control
decrease of the relative cell viability compared to solvent (DMSO) ([1]; all uptake transporter overexpressing and control cells): less than 20%
plasma concentration of Compound A (in vivo; 0.500 h, individual mice, 5.102 mg/kg): 117 ng/mL and 172 ng/mL and 141 ng/mL
plasma concentration of Compound A (in vivo; 0.500 h, mean): 143 ng/mL
plasma concentration of Compound A (in vivo; 1.00 h, individual mice, 5.102 mg/kg): 77.8 ng/mL and 71.7 ng/mL and 102 ng/mL
plasma concentration of Compound A (in vivo; 1.00 h, mean): 83.8 ng/mL
plasma concentration of Compound A (in vivo; 2.00 h, individual mice, 5.102 mg/kg): 32.3 ng/mL and 25.2 ng/mL and 24.4 ng/mL
plasma concentration of Compound A (in vivo; 2.00 h, mean): 27.3 ng/mL
plasma concentration of Compound A (in vivo; 4.00 h, individual mice, 5.102 mg/kg): 9.42 ng/mL and 4.31 ng/mL and 8.99 ng/mL
plasma concentration of Compound A (in vivo; 4.00 h, mean): 7.57 ng/mL
plasma concentration of Compound A (in vivo; 8.00 h, individual mice): BQL
plasma concentration of Compound A (in vivo; 24.0 h, individual mice): BQL
Tmax of Compound A (in vivo; male, CD-1, mouse, in vivo, ip, 4.061 mg/kg): 30 min
AUC(0-t) (in vivo; [8]): 179 ± 6.91 ng·h/mL
Cmax (in vivo; [8]): 143 ± 27.6 ng/mL
MRT last (in vivo; [8]): 70.8 ± 6.78 min
Tmax (in vivo; [8]): 30 min
half-life (in vivo; [8]): 53.1 ± 7.8 min
Tmax of Compound A (in vivo; male, CD-1, mouse, in vivo, po, 6.645 mg/kg): 15 min
Clinical observation (tolerability) (in vivo; mouse, in vivo): well tolerated
Microscopy results (solubility) (HBSS (pH 7.4) for OAT1, OAT3, OATP1B1, OATP1B3, OCT1, OCT2 uptake inhibition assay, 37° C., 6.25 μM nominal): Soluble
Microscopy results (solubility) (HBSS (pH 7.4) for OAT1, OAT3, OATP1B1, OATP1B3, OCT1, OCT2 uptake inhibition assay, 37° C., 30.00 μM nominal): Soluble
Microscopy results (solubility) (HBSS (pH 7.4) for OAT1, OAT3, OATP1B1, OATP1B3, OCT1, OCT2 uptake inhibition assay, 37° C., 40.00 μM nominal): Insoluble
Microscopy results (solubility) (HBSS (pH 7.4) for OAT1, OAT3, OATP1B1, OATP1B3, OCT1, OCT2 uptake inhibition assay, 37° C., 50.00 μM nominal): Insoluble
Microscopy results (solubility) (HBSS (pH 7.4) for OAT1, OAT3, OATP1B1, OATP1B3, OCT1, OCT2 uptake inhibition assay, 37° C., 100.00 μM nominal): Insoluble
Microscopy results (solubility) (KH (pH 8.0) for MATE1, MATE2-K uptake inhibition assay, 37° C., 6.25 μM nominal): Soluble
Microscopy results (solubility) (KH (pH 8.0) for MATE1, MATE2-K uptake inhibition assay, 37° C., 30.00 μM nominal): Soluble
Microscopy results (solubility) (KH (pH 8.0) for MATE1, MATE2-K uptake inhibition assay, 37° C., 40.00 μM nominal): Insoluble
Microscopy results (solubility) (KH (pH 8.0) for MATE1, MATE2-K uptake inhibition assay, 37° C., 50.00 μM nominal): Insoluble
Microscopy results (solubility) (KH (pH 8.0) for MATE1, MATE2-K uptake inhibition assay, 37° C., 100.00 μM nominal): Insoluble
Microscopy results (solubility) (Transport buffer (pH 7.4) for BSEP VT inhibition assay, 37° C., 6.25 μM nominal): Soluble
Microscopy results (solubility) (Transport buffer (pH 7.4) for BSEP VT inhibition assay, 37° C., 30.00 μM nominal): Soluble
Microscopy results (solubility) (Transport buffer (pH 7.4) for BSEP VT inhibition assay, 37° C., 40.00 μM nominal): Insoluble
Microscopy results (solubility) (Transport buffer (pH 7.4) for BSEP VT inhibition assay, 37° C., 50.00 μM nominal): Insoluble
Microscopy results (solubility) (Transport buffer (pH 7.4) for BSEP VT inhibition assay, 37° C., 100.00 μM nominal): Insoluble
Microscopy results (solubility) (Transport buffer with sucrose (pH 7.4) for BCRP and MDR1 VT inhibition assay, 32° C., 6.25 μM nominal): Soluble
Microscopy results (solubility) (Transport buffer with sucrose (pH 7.4) for BCRP and MDR1 VT inhibition assay, 32° C., 50.00 μM nominal): Soluble
Microscopy results (solubility) (Transport buffer with sucrose (pH 7.4) for BCRP and MDR1 VT inhibition assay, 32° C., 60.00 μM nominal): Insoluble
Microscopy results (solubility) (Transport buffer with sucrose (pH 7.4) for BCRP and MDR1 VT inhibition assay, 32° C., 70.00 μM nominal): Insoluble
Microscopy results (solubility) (Transport buffer with sucrose (pH 7.4) for BCRP and MDR1 VT inhibition assay, 32° C., 80.00 μM nominal): Insoluble
Microscopy results (solubility) (Transport buffer with sucrose (pH 7.4) for BCRP and MDR1 VT inhibition assay, 32° C., 90.00 μM nominal): Insoluble
Microscopy results (solubility) (Transport buffer with sucrose (pH 7.4) for BCRP and MDR1 VT inhibition assay, 32° C., 100.00 μM nominal): Insoluble
